{"source": "patent US20240255529A1", "about": "“NOVEL ASSAY AND NOVEL METHODS OF TREATING AGING-RELATED CONDITIONS” (The Progeria Research Foundation, priority 2021, published 2024)", "key": {"[1]": {"test_system": "plasma progerin", "test": "Plasma progerin (SMC progerin immunoassay) in HGPS clinical trial patients on therapy", "assay_type": "in vivo, human", "description": "An SMC ultrasensitive immunoassay for the detection of plasma progerin was developed. Overall, the assay employed a sandwich immunoassay format with an anti-lamin A capture antibody coated on magnetic microparticles, and an anti-progerin specific detection antibody conjugated to a fluorescent tag (FIG. 1) run in a 96-well plate. Progerin-bound detection antibody was eluted and read as single molecules using a confocal laser.\nThe SMC assay for measuring Progerin was as previously described (Todd et al.), except that magnetic microparticles (MP) coated with capture antibodies and detection reagents were specific to the progerin assay (FIG. 1). Briefly, the progerin capture antibody (mouse Mab anti-Lamin A+C, clone: 131C3 Abcam, epitope between amino acid residues 319-566, common to Lamins A, C and progerin) was coated onto MP at 25 μg antibody/mg MP. Samples were exposed to the MP-capture antibody, to specifically bind analyte, followed by one plate wash to remove unbound material. Next, fluorescently labeled progerin-specific detection antibody (Mouse Mab, clone: 13A4, from Millipore, epitope between amino acids 604 and 611 of progerin, which cross the deletion region of lamin A), pre-diluted to 2,000 ng/mL in assay buffer and then filtered through a 0.2 μm filter (MilliporeSigma), was added to wells. Plates were then washed 4 times to remove any unbound detection antibody. All MPs were then transferred from the initial 96-well assay plate to a new plate to avoid eluting any non-specific plate-bound detection antibody. Progerin-bound detection antibody was then eluted by pH shift using a proprietary glycine buffer, transferred to a new plate and detected by SMC using the Erenna Immunoassay System software (SgxLink™). The raw signal data and the interpolated value data obtained from SgxLink were transferred to Excel where precision was then calculated for the replicate wells. The acceptance specification for raw signal and interpolated values was precision and recovery bias≤20%.\nA 12-point standard curve of recombinant progerin (Abcam 93918) diluted in EMD standard diluent, a synthetic serum-based solution containing a proprietary mixture of Tris buffer and carrier protein (emdmillipore.com), was run on each plate in triplicate. The standard curve was used to determine progerin concentration in unknown samples. Samples were diluted in standard diluent so that anticipated progerin fell within the dynamic range of the standard curve. All reported progerin and SD are dilution-corrected. All samples were tested in duplicate, unless triplicate is specified.\nHuman clinical data was obtained from The PRF International Progeria Registry, Diagnostics Program, and Medical and Research Database (available online at progeriaresearch.org). HGPS plasma and serum were obtained from The PRF Cell and Tissue Bank (available online at progeriaresearch.org). Clinical trial samples were donated to the Bank from Boston Children's Hospital (BCH) with informed consent or approval from the BCH Committee on Clinical Investigation. Trial samples were collected in a fasting state, in the morning just prior to treatment dosing as trough samples, except pK samples which were collected at trough and then at specified times post-trough. Non-trial samples were not regulated as to time of day collected. Some nonHGPS healthy human plasma samples were obtained from ProMedDx. HGPS and nonHGPS plasma sample IDs were assigned HGPI and NPI prefixes, respectively.\nFor analysis, samples were fully thawed at RT for <5 min, lightly mixed, diluted in standard diluent before transferring into filter plate wells (MilliporeSigma MSBVN1210). Patient plasma volumes required for analysis were 200 or 100 μl (nonHGPS 1:1 and 1:2) and 8 μl (HGPS 1:25) to generate duplicates. Filter plates with sample were centrifuged for 10 minutes to pull sample through the filters. Filtrate was then assessed as described. […]"}, "[2]": {"test_system": "patients with HGPS", "test": "Life expectancy versus progerin decrease and time on lonafarnib therapy (dynamic model based on cRMST)", "assay_type": "in vivo, human", "description": "To quantify increase in life expectancy as it related to decrease in progerin and duration of time on lonafarnib therapy, the methodology by Yang et al. (2021), which proposes a dynamic model that utilizes a series of landmark time points (Dafni, 2011) based on the conditional restricted mean survival time (cRMST), was utilized. This analysis also adjusted for sex and age at baseline.\nNext, the relationship between lonafarnib treatment duration and change in life expectancy with extent of change in plasma progerin was assessed (FIG. 7, Table 7). This analysis included samples from patients with a baseline pre-therapy and at least one on-treatment progerin measurement (N=65 patients). […] Three representative wide-ranging examples of on-therapy progerin decreases (1,000, 10,000 and 15,000 pg/mL) spanning 10 years on treatment are graphed in FIG. 7. Patient lifespan increased in all 3 examples."}, "[3]": {"details": "children with HGPS treated with lonafarnib during a clinical trial; cited from earlier work"}, "[4]": {"test_system": "children with HGPS", "details": "children with HGPS treated with lonafarnib; cited from earlier work"}}}
{"smiles": "NC(=O)N1CCC(CC(=O)N2CCC([C@H]3c4ncc(Br)cc4CCc4cc(Cl)cc(Br)c43)CC2)CC1", "note": "[lonafarnib]", "values": [{"measurement": "average progerin, consecutive Triple Therapy vs on-treatment lonafarnib monotherapy extension visits", "setting": "[1]; 10 patients, extension 4.1±0.5 years, p=0.99", "result": "no significant differences"}, {"measurement": "average decreases in progerin from baseline", "setting": "[1]; ProLon1, 5 remaining visits, lonafarnib 150 mg/m^2, N=22-25, all p<0.0001", "result": "50-62%"}, {"measurement": "progerin at 150 mg/m^2 lonafarnib versus the 115 mg/m^2 dose", "setting": "[1]; ProLon1, each of the 4 trial visits after the 8-month visit, N=22-25, all p<0.05", "result": "significantly decreased"}, {"measurement": "average progerin decrease from baseline", "setting": "[1]; ProLon1, month 4, lonafarnib 115 mg/m^2, N=25, p<0.0001", "result": 48, "unit": "%"}, {"measurement": "average difference of progerin trough (lower) from 2-, 4- and 8-hours post-dose", "setting": "[1]; ProLon1 pK samples, lonafarnib 115 mg/m^2, all p<0.05", "result": "about 3,000 pg/mL"}, {"measurement": "progerin post-dose (hours 1,2,4,6,8) vs. trough levels", "setting": "[1]; ProLon1 pK samples, lonafarnib 150 mg/m^2, all p≥0.05", "result": "did not demonstrate significant changes"}, {"measurement": "average progerin decrease from baseline", "setting": "[1]; ProLon2, lonafarnib monotherapy 150 mg/m^2, dosing period, N=26, p<0.0001", "result": 36.7, "unit": "%"}, {"measurement": "time to significant decrease of plasma progerin levels", "setting": "[1]; lonafarnib therapy, HGPS patients", "result": "≤ 4", "unit": "months"}, {"measurement": "average decreases in progerin from baseline", "setting": "[1]; long-term continuous therapy subgroup N=13, all subsequent time points, 150 mg/m^2, up to 9.8±0.5 years, p<0.0001", "result": "56-74%"}, {"measurement": "average progerin decrease from baseline", "setting": "[1]; long-term continuous therapy subgroup N=13, month 4, 115 mg/m^2, p<0.0001", "result": 48, "unit": "%"}, {"measurement": "average decrease of trial patients' plasma progerin", "setting": "[1]; on therapy, HGPS trial patients", "result": "more than 14,000 pg/mL"}, {"measurement": "average on-therapy plasma progerin decrease from baseline untreated", "setting": "[1]; overall, all trials, HGPS patients, p<0.0001", "result": 38, "unit": "%"}, {"measurement": "average on-therapy plasma progerin", "setting": "[1]; overall, all trials, baseline untreated 32,726±12,659 pg/mL", "result": "20,211±10,190 pg/mL"}, {"measurement": "estimated increase in life expectancy", "setting": "[2]; 13 patients on therapy for over 10 years", "result": "~6", "unit": "years"}, {"measurement": "increase in average lifespan", "setting": "[2]; from 14.5 to over 20 years of age, 13 patients on therapy over 10 years", "result": "greater than 40%"}, {"measurement": "Cmax", "setting": "[3]", "result": 2640, "unit": "ng/mL"}, {"measurement": "increased survival, estimated, on average", "setting": "[4]", "result": 2.5, "unit": "years"}]}
